Measured values from ChEMBL document CHEMBL3045762, “Studies on arylfuran derivatives. Part XI. Synthesis, characterisation and biological studies on some Mannich bases carrying 2,4-dichlorophenylfurfural moiety” (2000).
The source made the active and inactive calls. No cut-off for these calls is given here.

Key:
Cynodon dactylon [1] = experiment: Post-emergence herbicidal activity against Cynodon dactylon assessed as reduction of seed germination at 0.48 ppm after 5 to 25 days by pot test; format: functional, organism-based
Amaranthus viridis [2] = experiment: Post-emergence herbicidal activity against Amaranthus viridis assessed as reduction of seed germination at 0.48 ppm after 5 to 25 days by pot test; format: functional, organism-based
Digitaria sanguinalis [3] = experiment: Post-emergence herbicidal activity against Digitaria sanguinalis (hairy crabgrass) assessed as reduction of seed germination at 0.48 ppm after 5 to 25 days by pot test; format: functional, organism-based
Euphorbia hirta [4] = experiment: Post-emergence herbicidal activity against Euphorbia hirta assessed as reduction of seed germination at 0.48 ppm after 5 to 25 days by pot test; format: functional, organism-based
Parthenium hysterophorus [5] = experiment: Post-emergence herbicidal activity against Parthenium hysterophorus assessed as reduction of seed germination at 0.48 ppm after 5 to 25 days by pot test; format: functional, organism-based
Digitaria sanguinalis [6] = experiment: Pre-emergence herbicidal activity against Digitaria sanguinalis (hairy crabgrass) assessed as reduction of seed germination at 1 ppm after 7 to 21 days by pot test; format: functional, organism-based
Amaranthus viridis [7] = experiment: Pre-emergence herbicidal activity against Amaranthus viridis assessed as reduction of seed germination at 1 ppm after 7 to 21 days by pot test; format: functional, organism-based
Cynodon dactylon [8] = experiment: Post-emergence herbicidal activity against Cynodon dactylon assessed as reduction of seed germination at 1000 ppm after 5 to 25 days by pot test; format: functional, organism-based
Digitaria sanguinalis [9] = experiment: Pre-emergence herbicidal activity against Digitaria sanguinalis (hairy crabgrass) assessed as reduction of seed germination at 1000 ppm after 7 to 21 days by pot test; format: functional, organism-based
Digitaria sanguinalis [10] = experiment: Post-emergence herbicidal activity against Digitaria sanguinalis (hairy crabgrass) assessed as reduction of seed germination at 1000 ppm after 5 to 25 days by pot test; format: functional, organism-based
Amaranthus viridis [11] = experiment: Pre-emergence herbicidal activity against Amaranthus viridis assessed as reduction of seed germination at 1000 ppm after 7 to 21 days by pot test; format: functional, organism-based
Amaranthus viridis [12] = experiment: Post-emergence herbicidal activity against Amaranthus viridis assessed as reduction of seed germination at 1000 ppm after 5 to 25 days by pot test; format: functional, organism-based
Alternaria solani = experiment: Antifungal activity against Alternaria solani assessed as fungal growth (reference value: 52 mm); format: functional
Plasmopara viticola = experiment: Antifungal activity against Plasmopara viticola assessed as infection (reference value: 100%); format: functional
Euphorbia hirta [13] = experiment: Post-emergence herbicidal activity against Euphorbia hirta assessed as reduction of seed germination at 1000 ppm after 5 to 25 days by pot test; format: functional, organism-based
Fusarium sp. = experiment: Antifungal activity against Fusarium sp. assessed as fungal growth (reference value: 77 mm); format: functional
Parthenium hysterophorus [14] = experiment: Post-emergence herbicidal activity against Parthenium hysterophorus assessed as reduction of seed germination at 1000 ppm after 5 to 25 days by pot test; format: functional, organism-based
Digitaria sanguinalis [15] = experiment: Pre-emergence herbicidal activity against Digitaria sanguinalis (hairy crabgrass) assessed as reduction of seed germination at 1.50 ppm after 7 to 21 days by pot test; format: functional, organism-based
Amaranthus viridis [16] = experiment: Pre-emergence herbicidal activity against Amaranthus viridis assessed as reduction of seed germination at 1.50 ppm after 7 to 21 days by pot test; format: functional, organism-based
Euphorbia hirta [17] = experiment: Post-emergence herbicidal activity against Euphorbia hirta assessed as reduction of seed germination at 1.22 ppm after 5 to 25 days by pot test; format: functional, organism-based
Cynodon dactylon [18] = experiment: Post-emergence herbicidal activity against Cynodon dactylon assessed as reduction of seed germination at 1.22 ppm after 5 to 25 days by pot test; format: functional, organism-based
Parthenium hysterophorus [19] = experiment: Post-emergence herbicidal activity against Parthenium hysterophorus assessed as reduction of seed germination at 1.22 ppm after 5 to 25 days by pot test; format: functional, organism-based
Digitaria sanguinalis [20] = experiment: Post-emergence herbicidal activity against Digitaria sanguinalis (hairy crabgrass) assessed as reduction of seed germination at 1.22 ppm after 5 to 25 days by pot test; format: functional, organism-based
Amaranthus viridis [21] = experiment: Post-emergence herbicidal activity against Amaranthus viridis assessed as reduction of seed germination at 1.22 ppm after 5 to 25 days by pot test; format: functional, organism-based

Structure (SMILES) | Activity (Cynodon dactylon [8]) | Activity (Digitaria sanguinalis [9]) | Activity (Digitaria sanguinalis [10]) | Activity (Amaranthus viridis [11]) | Activity (Amaranthus viridis [12]) | Activity (Alternaria solani) [mm] | Activity (Plasmopara viticola) [%] | Activity (Euphorbia hirta [13]) | Activity (Fusarium sp.) [mm] | Activity (Parthenium hysterophorus [14]) | also measured
C[n+]1ccc(-c2cc[n+](C)cc2)cc1 | – | – | – | – | – | – | – | – | – | – | Activity (Cynodon dactylon [1]): Active; Activity (Amaranthus viridis [2]): Active; Activity (Digitaria sanguinalis [3]): Active; Activity (Euphorbia hirta [4]): Active; Activity (Parthenium hysterophorus [5]): Active
CCC(CC)Nc1c([N+](=O)[O-])cc(C)c(C)c1[N+](=O)[O-] | – | – | – | – | – | – | – | – | – | – | Activity (Digitaria sanguinalis [6]): Active; Activity (Amaranthus viridis [7]): Active
Fc1ccc(NCn2nc(COc3ccc(Cl)cc3Cl)n(/N=C/c3ccc(-c4ccc(Cl)cc4Cl)o3)c2=S)cc1Cl | inactive | inactive | inactive | inactive | inactive | 51 | 100 | inactive | 73 | inactive | –
Fc1ccc(NCn2nc(COc3ccccc3Cl)n(/N=C/c3ccc(-c4ccc(Cl)cc4Cl)o3)c2=S)cc1Cl | inactive | inactive | inactive | inactive | inactive | 57 | 100 | inactive | 75 | inactive | –
S=c1[nH]nc(COc2ccccc2Cl)n1/N=C/c1ccc(-c2ccc(Cl)cc2Cl)o1 | inactive | inactive | inactive | inactive | inactive | 66 | 100 | inactive | 77.5 | inactive | –
S=c1[nH]nc(COc2ccc(Cl)cc2Cl)n1/N=C/c1ccc(-c2ccc(Cl)cc2Cl)o1 | inactive | inactive | inactive | inactive | inactive | 58 | 100 | inactive | 80 | inactive | –
CCNc1nc(Cl)nc(NC(C)C)n1 | – | – | – | – | – | – | – | – | – | – | Activity (Digitaria sanguinalis [15]): Active; Activity (Amaranthus viridis [16]): Active
Fc1ccc(NCn2nc(COc3ccc(Cl)cc3)n(/N=C/c3ccc(-c4ccc(Cl)cc4Cl)o3)c2=S)cc1Cl | inactive | inactive | inactive | inactive | inactive | 52 | 100 | inactive | 75 | inactive | –
O=C(O)CNCP(=O)(O)O | – | – | – | – | – | – | – | – | – | – | Activity (Euphorbia hirta [17]): Active; Activity (Cynodon dactylon [18]): Active; Activity (Parthenium hysterophorus [19]): Active; Activity (Digitaria sanguinalis [20]): Active; Activity (Amaranthus viridis [21]): Active
S=c1[nH]nc(COc2ccc(Cl)cc2)n1/N=C/c1ccc(-c2ccc(Cl)cc2Cl)o1 | inactive | inactive | inactive | inactive | inactive | 60 | 100 | inactive | 79 | inactive | –
CCCCC(O)(Cn1cncn1)c1ccc(Cl)cc1Cl (stereo not given) [HEXACONAZOLE] | – | – | – | – | – | – | – | – | 8 | – | –
Cc1cc(OCc2nn(CNc3ccc(F)c(Cl)c3)c(=S)n2/N=C/c2ccc(-c3ccc(Cl)cc3Cl)o2)ccc1Cl | inactive | inactive | inactive | inactive | inactive | 49 | 100 | inactive | 72 | inactive | –
Cc1cc(OCc2n[nH]c(=S)n2/N=C/c2ccc(-c3ccc(Cl)cc3Cl)o2)ccc1Cl | inactive | inactive | inactive | inactive | inactive | 56 | 100 | inactive | 76 | inactive | –
